Results: US20130052644A1, “Predictive Markers Useful in the Treatment of Fragile X Syndrome (FXS)” (priority 2010, published 2013)

Tests used:
Type in all cases: in vivo, human
[1] = test system: patients having Fragile X Syndrome (FXS); test: Clinical Global Impression (CGI) scale in clinical study, by FMR1 methylation status / mRNA expression; details: day 19; patients fully methylated (probe-based methylation assay, 12 patients analysed) and/or not expressing FMR1 mRNA; p<0.001
[2] = test system: patients having Fragile X Syndrome (FXS); test: Aberrant Behavior Checklist-Community Edition (ABC-C) scores in clinical study, by FMR1 methylation status / mRNA expression; details: for ABC-C improvement in response over placebo / ABC-C Subscale I (Irritability), treatment difference / ABC-C Subscale II (Lethargy), treatment difference / ABC-C Subscale III (Stereotype), treatment difference / ABC-C Subscale IV (Hyperactivity), treatment difference / ABC-C Subscale V (Inappropriate Speech), treatment difference / ABC-C Total of subscales, treatment difference: day 19; for ABC-C Subscale I (Irritability), treatment difference / ABC-C Subscale II (Lethargy), treatment difference / ABC-C Subscale III (Stereotype), treatment difference / ABC-C Subscale IV (Hyperactivity), treatment difference / ABC-C Subscale V (Inappropriate Speech), treatment difference / ABC-C Total of subscales, treatment difference: versus placebo, adjusted for baseline
Description: (§1) As used herein, “an mGluR5 responder” is an individual having FXS who is likely following therapeutic treatment with an mGluR5 antagonist to show improved behavioral symptoms as assessed using the Aberrant Behavior Checklist—Community Edition (ABC-C) measure of behavior (Bihm et al., Am. J. Ment Retard 96:209-211). The ABC-C measurement looks at various behaviors including stereotypic behavior, hyperactivity, inappropriate speech, and restricted interests. […] The behavioral symptoms may also be assessed by other methods, such as Clinical Global Impression (CGI) scale, Social Responsiveness Scale (SRS), or Repetitive Behavior Scale-Revised (RBS-R). Individuals showing an improvement according to these tests will also be determined to be an mGluR5 responder.
(§2) The present examples were performed as a follow up to a clinical trial which investigated whether the mGluR5 antagonist (−)-(3aR,4S,7aR)-4-Hydroxy-4-m-tolylethynyl-octahydro-indole-1-carboxylic acid methyl ester could provide beneficial treatment to a subject having FXS. The present study was set up to identify if a subset of patients exist that respond to (−)-(3aR,4S,7aR)-4-Hydroxy-4-m-tolylethynyl-octahydro-indole-1-carboxylic acid methyl ester treatment. In an attempt to identify such a subset of patients who respond to (−)-(3aR,4S,7aR)-4-Hydroxy-4-m-tolylethynyl-octahydro-indole-1-carboxylic acid methyl ester treatment, a study was conducted to investigate the relationship between FMR1 methylation/mRNA expression and (−)-(3aR,4S,7aR)-4-Hydroxy-4-m-tolylethynyl-octahydro-indole-1-carboxylic acid methyl ester efficacy in the study.
(§3) Among the 30 patients who completed the clinical study, 26 consented for pharmacogenetic/pharmacogenomic assessments. Genomic DNA was extracted from whole blood according to the instructions from Gentra (Minneapolis, Minn.). Total RNA was extracted from whole blood according to the instructions from Qiagen (Valencia, Calif.). A total of 26 DNA and 24 RNA samples were successfully extracted and analyzed. In addition, normal control DNAs were purchased from Coriell Institute (Camden, N.J.).
(§4) Genomic DNA was treated with bisulfite (Qiagen, Valencia, Calif.). MSP was performed using the CpG WIZ Fragile X Amplification Kit from Chemicon (Temecula, Calif.) according to manufacture's instruction. A total of 26 patients and 4 normal controls were analyzed.
(§5) FMR1 mRNA expression was measured by Taqman real-time PCR. The primers and probe were designed by Applied Biosystems (Foster City, Calif.; fragile X mental retardation 1 Hs 00924544_ml, Glyceraldehyde-3-phosphate dehydrogenase Hs 99999905_ml; ubiquitin C Hs 00824723_ml)
(§6) The expression levels of the control genes, GAPDH and UBC, were used to adjust for inter-sample variability. The data is presented as normalized Ct (cycle threshold). A Ct value≧36 is considered to be the background of the assay. A total of 24 patients and 9 normal controls were analyzed.
(§7) Genomic DNA was treated with […] (Qiagen, Valencia, Calif.). The following primers were used to amplify the FMR1 promoter with 22 CpG sites: 5′-[…]-3′ (SEQ ID NO:10); and 5′-[…]-3′ (SEQ ID NO:11). The 196-bp FMR1 promoter was cloned using the TA cloning kit from Invitrogen (Carlsbad, Calif.) and 7-13 clones per patient were sequenced using ABI3730XL (Foster City, Calif.). More details can be found in the BMD report. A total of 26 patients and 4 normal controls were analyzed.

[3] = test system: patients having Fragile X Syndrome (FXS); test: Clinical response versus placebo in clinical study (measure not given)
Description: As used herein, “an mGluR5 responder” is an individual having FXS who is likely following therapeutic treatment with an mGluR5 antagonist to show improved behavioral symptoms as assessed using the Aberrant Behavior Checklist—Community Edition (ABC-C) measure of behavior (Bihm et al., Am. J. Ment Retard 96:209-211). The ABC-C measurement looks at various behaviors including stereotypic behavior, hyperactivity, inappropriate speech, and restricted interests. […] The behavioral symptoms may also be assessed by other methods, such as Clinical Global Impression (CGI) scale, Social Responsiveness Scale (SRS), or Repetitive Behavior Scale-Revised (RBS-R). Individuals showing an improvement according to these tests will also be determined to be an mGluR5 responder. […]
Among the 30 patients who completed the clinical study, 26 consented for pharmacogenetic/pharmacogenomic assessments. […] A total of 26 DNA and 24 RNA samples were successfully extracted and analyzed. […]
Genomic DNA was treated with bisulfite (Qiagen, Valencia, Calif.). […] A total of 26 patients and 4 normal controls were analyzed.
FMR1 mRNA expression was measured by Taqman real-time PCR. […]
The expression levels of the control genes, GAPDH and UBC, were used to adjust for inter-sample variability. […] A total of 24 patients and 9 normal controls were analyzed. […]

[4] = test system: patients having Fragile X Syndrome (FXS); test: Clinical Global Impression (CGI) scale in clinical study, by FMR1 methylation status / mRNA expression; details: for CGI-global improvement, treatment difference / CGI-efficacy index, treatment difference: versus placebo, adjusted for baseline; for CGI-global improvement, treatment difference: decrease = improvement; for CGI-efficacy index, treatment difference: increase = improvement
Description: as §1, §2, §3, §4, §5, §6, §7

[5] = fully methylated patients after reclassification (MSP, bisulfite-sequencing, additional MSP), p<0.001
[6] = patients who did not express FMR1 mRNA (n = 7)
[7] = patients who expressed FMR1 mRNA (n = 17)
[8] = patients with full methylation (n = 8)
[9] = patients with partial methylation (n = 18)
[10] = reclassified: patients with full methylation (determined by MSP and sequencing) (n = 7)
[11] = reclassified: patients with partial methylation (determined by MSP and sequencing) (n = 18)
[12] = day 19, patients who did not express FMR1 mRNA (n = 7)
[13] = day 19, patients who expressed FMR1 mRNA (n = 17)
[14] = day 19, patients with full methylation (n = 8)
[15] = day 19, patients with partial methylation (n = 18)
[16] = day 19, reclassified: patients with full methylation (by MSP and sequencing) (n = 7)
[17] = day 19, reclassified: patients with partial methylation (by MSP and sequencing) (n = 18)

COC(=O)N1CC[C@@H]2[C@H]1CCC[C@@]2(O)C#Cc1cccc(C)c1 [(−)-(3aR,4S,7aR)-4-Hydroxy-4-m-tolylethynyl-octahydro-indole-1-carboxylic acid methyl ester] was tested, and the “CGI-efficacy index improvement in response over placebo” value [1] was “significantly greater improvement”, the “ABC-C improvement in response over placebo” value ([2]; patients fully methylated (initial MSP) or not expressing FMR1 mRNA, p<0.001) was “significantly greater improvement” and the “ABC-C improvement in response over placebo” value ([2]; patients fully methylated (probe-based methylation assay, 12 patients analysed) and/or not expressing FMR1 mRNA, p<0.001) was “significantly greater improvement”. The “ABC-C response versus placebo” value [2, 5] was “significantly higher than placebo”, the “ABC-C Subscale I (Irritability), treatment difference” value [2, 6] was −3.69 and the “ABC-C Subscale II (Lethargy), treatment difference” value [2, 6] was −6.71. The “ABC-C Subscale III (Stereotype), treatment difference” value [2, 6] was −3.03, the “ABC-C Subscale IV (Hyperactivity), treatment difference” value [2, 6] was −9.12 and the “ABC-C Subscale V (Inappropriate Speech), treatment difference” value (shortened to “ABC-C Subscale V … treatment difference”) [2, 6] was −4.66. The “ABC-C Total of subscales, treatment difference” value [2, 6] was −32.19, the “ABC-C Subscale I (Irritability), treatment difference” value [2, 7] was −0.81 and the “ABC-C Subscale II (Lethargy), treatment difference” value [2, 7] was 1.93. The “ABC-C Subscale III (Stereotype), treatment difference” value [2, 7] was 0.32, the “ABC-C Subscale IV (Hyperactivity), treatment difference” value [2, 7] was −0.16 and the “ABC-C Subscale V … treatment difference” value [2, 7] was 1.09. The “ABC-C Total of subscales, treatment difference” value [2, 7] was 2.23, the “ABC-C Subscale I (Irritability), treatment difference” value [2, 8] was −4.33 and the “ABC-C Subscale II (Lethargy), treatment difference” value [2, 8] was −6.55. The “ABC-C Subscale III (Stereotype), treatment difference” value [2, 8] was −3.96, the “ABC-C Subscale IV (Hyperactivity), treatment difference” value [2, 8] was −8.77 and the “ABC-C Subscale V … treatment difference” value [2, 8] was −4.48. The “ABC-C Total of subscales, treatment difference” value [2, 8] was −30.85, the “ABC-C Subscale I (Irritability), treatment difference” value [2, 9] was −0.67 and the “ABC-C Subscale II (Lethargy), treatment difference” value [2, 9] was 3.76. For the same compound, the “ABC-C Subscale III (Stereotype), treatment difference” value [2, 9] was 0.89, the “ABC-C Subscale IV (Hyperactivity), treatment difference” value [2, 9] was 0.42 and the “ABC-C Subscale V … treatment difference” value [2, 9] was 1.09. For the same compound, the “ABC-C Total of subscales, treatment difference” value [2, 9] was 5.66, the “ABC-C Subscale I (Irritability), treatment difference” value [2, 10] was −2.66 and the “ABC-C Subscale II (Lethargy), treatment difference” value [2, 10] was −5.53. The “ABC-C Subscale III (Stereotype), treatment difference” value [2, 10] was −5.06, the “ABC-C Subscale IV (Hyperactivity), treatment difference” value [2, 10] was −8.55 and the “ABC-C Subscale V … treatment difference” value [2, 10] was −4.31. For the same compound, the “ABC-C Total of subscales, treatment difference” value [2, 10] was −27.82, the “ABC-C Subscale I (Irritability), treatment difference” value [2, 11] was −1.15 and the “ABC-C Subscale II (Lethargy), treatment difference” value [2, 11] was 2.66. The “ABC-C Subscale III (Stereotype), treatment difference” value [2, 11] was 0.78, the “ABC-C Subscale IV (Hyperactivity), treatment difference” value [2, 11] was −0.21 and the “ABC-C Subscale V … treatment difference” value [2, 11] was 0.81. The “ABC-C Total of subscales, treatment difference” value [2, 11] was 3.10, the “Difference between compound and placebo” value ([3]; patients partially methylated (initial MSP) or expressing FMR1 mRNA) was “no significant differences” and the “Difference between compound and placebo” value ([3]; patients partially methylated (probe-based methylation assay) or expressing FMR1 mRNA) was “no significant differences”. The “CGI-efficacy index improvement in response over placebo” value ([4]; day 19, patients fully methylated (initial MSP) or not expressing FMR1 mRNA, p<0.001) was “significantly greater improvement”, the “CGI-efficacy index response versus placebo” value [4, 5] was “significantly higher than placebo” and the “CGI-global improvement, treatment difference” value [4, 12] was −2.02. The “CGI-efficacy index, treatment difference” value [4, 12] was 1.99, the “CGI-global improvement, treatment difference” value [4, 13] was 0.56 and the “CGI-efficacy index, treatment difference” value [4, 13] was −0.47. For the same compound, the “CGI-global improvement, treatment difference” value [4, 14] was −1.94, the “CGI-efficacy index, treatment difference” value [4, 14] was 1.86 and the “CGI-global improvement, treatment difference” value [4, 15] was 0.67. The “CGI-efficacy index, treatment difference” value [4, 15] was −0.58, the “CGI-global improvement, treatment difference” value [4, 16] was −1.78 and the “CGI-efficacy index, treatment difference” value [4, 16] was 1.76. For the same compound, the “CGI-global improvement, treatment difference” value [4, 17] was 0.58 and the “CGI-efficacy index, treatment difference” value [4, 17] was −0.43.
